Laboratory results from patent publication US20260139005A1 (priority 2022, published 2026).
Where a SMILES comes first, the peptide text is derived from it.

Columns and labels:
Botrytis cinerea = experiment: MIC of NCR13 and alanine scanning variants, 96-well plate / resazurin assay; format: cell-based; details: 48 h
Procedure: Antifungal activity of NCR13_AlaV1-V5 was assessed at different concentrations using a 2-fold dilution series of each peptide. Antifungal activity of each peptide was determined spectrophotometrically using the 96-well plate assay. Around 45 μL of each peptide at different concentrations was added to each well of the microtiter plate containing 45 μL of ˜[…] spore suspension. The quantitative fungal growth inhibition was determined by measuring the absorbance at 595 nm using a (Tecan Infinite M200 ProTecan Systems Inc., San Jose, CA) microplate reader after 48 h. The fungal cell viability was determined by the resazurin cell viability assay. After incubation of the pathogen/peptide mixture for 48 h, 10 μl of 0.1% resazurin solution was added to each well. After incubation of the mixture overnight, a change in the color of the resazurin dye from blue to pink or colorless indicated the presence of live fungal cells. The MIC for each peptide was the lowest concentration of each peptide at which no change in blue color occurred.

Botrytis cinerea T-4 = experiment: MIC determination, 96-well plate assay with resazurin cell viability readout; format: cell-based
Procedure: The fungal strain of Botrytis cinerea T-4 was cultured on V8 agar plates. Fungal spores were harvested by flooding the fungal growth plates with sterile water. The spore suspension was filtered through two layers of Miracloth, centrifuged at 13,600 rpm for 1 min, washed, and re-suspended in low-salt Synthetic Fungal Medium (SFM) (U.S. Pat. No. 6,316,407, incorporated herein by reference in its entirety). The spore suspension was adjusted to the desired spore count using a hemocytometer.
Antifungal activity of NCR13_V7 (SEQ ID NO: 9) and NCR13_V9 (SEQ ID NO: 11) was assessed at different concentrations using a 2-fold dilution series of each peptide. Antifungal activity of each peptide was determined spectrophotometrically using the 96-well plate assay (Kereszt et al., Front. Plant Sci. 9, 1026 (2018)). Around 45 μL of each peptide at different concentrations was added to each well of the microtiter plate containing 45 μL of ˜10^5 spores/ml spore suspension. The quantitative fungal growth inhibition was determined by measuring the absorbance at 595 nm using a (Tecan Infinite M200 ProTecan Systems Inc., San Jose, CA) microplate reader after 48 h. The fungal cell viability was determined by the resazurin cell viability assay (Tiricz et al., Appl. Environ. Microbiol. 79, 6737-6746 (2013);. Balogh et al., Acta Microbiol. Immunol. Hung. 61, 229-239 (2014)). […]

B. cinerea = experiment: Semi-in planta drop-inoculation antifungal assay on detached N. benthamiana leaves (gray mold); format: in vivo, Botrytis cinerea on Nicotiana benthamiana; details: B. cinerea spores, peptide 0.75, 1.5, 3 and 6 μM, 48 h

| Compound | MIC (μM) Botrytis cinerea (Botrytis cinerea) | fold higher antifungal activity than NCR13_V7 (Botrytis cinerea T-4; B. cinerea in SFM) | MIC (μM) in SFM (Botrytis cinerea T-4; B. cinerea, low-salt Synthetic Fungal Medium (SFM), 48 h) | reduction of lesion size (B. cinerea) |
| --- | --- | --- | --- | --- |
| CC[C@H](C)[C@H](NC(=O)[C@H](CS)NC(=O)[C@H](C)NC(=O)[C@H](C)NC(=O)[C@H](C)NC(=O)[C@H](CCCCN)NC(=O)[C@@H]1CCCN1C(=O)[C@H](CCCCN)NC(=O)[C@H](CCCNC(=N)N)NC(=O)[C@H](CS)NC(=O)[C@H](C)NC(=O)[C@H](Cc1ccccc1)NC(=O)[C@H](CCCCN)NC(=O)[C@H](CCCCN)NC(=O)[C@H](CS)NC(=O)[C@H](CC(=O)O)NC(=O)[C@H](CCCCN)NC(=O)[C@H](CC(=O)O)NC(=O)[C@H](CO)NC(=O)[C@H](CCC(N)=O)NC(=O)[C@H](CS)NC(=O)[C@@H]1CCCN1C(=O)[C@H](CCCCN)NC(=O)[C@@H](N)[C@@H](C)O)C(=O)N[C@@H](CC(N)=O)C(=O)NCC(=O)N[C@@H](Cc1ccccc1)C(=O)N[C@@H](CS)C(=O)N[C@@H](CCCCN)C(=O)N[C@@H](CS)C(=O)N[C@H](C(=O)N[C@@H](CCCNC(=N)N)C(=O)O)C(C)C [NCR13_AlaV4] (H-TKPCQSDKDCKKFACRKPKAAACINGFCKCVR-OH; N-terminus and C-terminus assumed) | Inactive | – | – | – |
| N=C(N)NCCC[C@H](NC(=O)[C@H](CS)NC(=O)[C@H](Cc1c[nH]c2ccccc12)NC(=O)[C@H](Cc1ccccc1)NC(=O)[C@H](CCCCN)NC(=O)[C@@H](N)CCCCN)C(=O)N[C@@H](CCCCN)C(=O)N1CCC[C@H]1C(=O)N[C@@H](CCCCN)C(=O)N[C@@H](Cc1c[nH]c2ccccc12)C(=O)N1CCC[C@H]1C(=O)N[C@@H](CCCCN)C(=O)N[C@@H](CS)C(N)=O [NCR13_V9, KKFWCRKPKWPKC-NH2] (H-KKFWCRKPKWPKC-NH2; N-terminus assumed) | – | 2 fold | 1.5 µM | reduced the lesion sizes greater than NCR13_V7 |
| TKPCQSDKDCAAAACRKPKVPKCINGFCKCVR [NCR13_AlaV2] | Inactive | – | – | – |
| TKPCQSDKDCKKFACAAAAVPKCINGFCKCVR [NCR13_AlaV3] | Inactive | – | – | – |
